Laboratory results reported in paper PMC9549030, “Structural basis for specific inhibition of the deubiquitinase UCHL1” (Nature Communications, 2022).
Several values for one entry are separate records, joined by “and”; a condition that tells them apart may be missing. Identical values can stand only once. Like-named read-outs stand apart in the source and are kept apart here.

What was measured:
UCHL1 in HEK293 cells = system: T1, UCHL1 in HEK293 cells; test: Cellular Ub-probe (HA-Ub-VS) competition, inhibition of cellular UCHL1; format: cell-based, human
T1 construct: Western blot analysis of endogenous UCHL1 labeled with HA-Ub-VS after treatment of HEK293 cells; endogenous in cells; host or cells: HEK293
Procedure: Proteins were transferred to a polyvinylidene fluoride (PVDF, only experiments in Fig. 4e and Supplementary Fig. 7e, f) or nitrocellulose (all other experiments) membrane using a Trans-Blot Turbo system (Bio-Rad, 1.3 A, 25 V, 10 min). The membranes were blocked with 5% (m/v) nonfat milk in PBS-T buffer and incubated with indicated primary antibodies (anti-UCHL1, 1:1000, Cell Signaling, D3T2E; anti-PARK7, 1:1000, Cell Signaling, D29E5; anti-Tubulin, 1:4000, Sigma, T6199; anti-Hemagglutinin, 1:1000, BioLegend, 16B12; anti-flag, 1:2000, Sigma, F3165; anti-Ubiquitin, 1:1000, Cell Signaling, P4D1; anti-Ubiquitin, 1:300, Santa Cruz, P4D1, sc-8017; anti-UCHL3, 1:1000, Proteintech, 12384-1-AP) overnight. Then the membranes were incubated with the respective secondary antibody (anti-mouse,1:5000, Sigma, NXA931; anti-rabbit, 1:5000, Sigma, GENA934) coupled to horseradish peroxidase. The chemiluminescent reaction was initiated using a Clarity Western ECL substrate (Bio-Rad) and images were taken on a ChemiDoc MP Imaging System (Bio-Rad).
The total protein concentration was adjusted to 2 mg/ml by diluting each sample with ABP lysis buffer. A final concentration of 1 µM HA-Ub-VS probe was added, followed by incubation for 30 min at 37 °C. The labeling reaction was quenched by the addition of 4x LDS sample buffer. The samples were separated via SDS-PAGE and further analyzed via western blotting as described above.

UCHL1 [1] = biological target: T2, UCHL1 (Homo sapiens, UniProt P09936); test: Ub-Rhodamine (Ubiquitin rhodamine cleavage) assay; format: biochemical; details: 1 h preincubation; for remaining activity at 0.000610352 µM: compound 0.610352 nM; for remaining activity at 0.0012207 µM: compound 1.2207 nM; for remaining activity at 0.00244141 µM: compound 2.44141 nM; for remaining activity at 0.00488281 µM: compound 4.88281 nM; for remaining activity at 0.00976562 µM: compound 9.76562 nM; for remaining activity at 0.0195312 µM: compound 19.5312 nM; for remaining activity at 0.0390625 µM: compound 39.0625 nM; for remaining activity at 0.078125 µM: compound 78.125 nM; for remaining activity at 0.15625 µM: compound 156.25 nM; for remaining activity at 0.3125 µM: compound 312.5 nM; for remaining activity at 0.625 µM: compound 625 nM; for remaining activity at 1.25 µM: compound 1250 nM; for remaining activity at 2.5 µM: compound 2500 nM; for remaining activity at 5 µM: compound 5000 nM; for remaining activity at 10 µM: compound 10000 nM; for remaining activity at 0.00050402 µM: compound 0.50402 nM; for remaining activity at 0.00151206 µM: compound 1.51206 nM; for remaining activity at 0.00453618 µM: compound 4.53618 nM; for remaining activity at 0.0136085 µM: compound 13.6085 nM; for remaining activity at 0.0408257 µM: compound 40.8257 nM; for remaining activity at 0.122477 µM: compound 122.477 nM; for remaining activity at 0.367431 µM: compound 367.431 nM; for remaining activity at 1.10229 µM: compound 1102.29 nM; for remaining activity at 3.30688 µM: compound 3306.88 nM; for remaining activity at 30.581 µM: compound 30581 nM; for remaining activity at 100 µM: compound 100000 nM
T2 sequence (P09936 1-223): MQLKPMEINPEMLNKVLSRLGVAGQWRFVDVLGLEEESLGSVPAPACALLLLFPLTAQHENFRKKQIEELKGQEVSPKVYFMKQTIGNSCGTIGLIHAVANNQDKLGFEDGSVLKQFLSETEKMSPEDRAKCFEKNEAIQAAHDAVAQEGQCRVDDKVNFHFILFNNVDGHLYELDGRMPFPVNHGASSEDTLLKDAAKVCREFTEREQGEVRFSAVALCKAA

UCHL1 [2] = biological target: T2, UCHL1; test: Thermal shift assay; format: binding; details: UCHL1 1 µM, 1 h, replicates
Procedure: Reactions were performed in white 96-well PCR plates (Bio-Rad). UCHL1 was diluted in thermal shift buffer (1x PBS, 5 mM DTT) to a 4x concentration of 4 µM. The protein was then mixed with 4x compound dissolved in thermal shift buffer in a 1:1 ratio. To each well was added 20 µL of DUB-Inhibitor solution, followed by 1 h incubation time. To each well was then added 20 µL 4x SYPRO Orange in thermal shift buffer. After sealing the plates with a transparent film, thermal denaturation (gradient: 20–90 °C; Increment: 0.3 °C, hold for 5 s before read) was performed and monitored by a Bio-Rad Connect cycler.

UCHL1 [3] = biological target: T2, UCHL1; test: Identification of probe-labeled proteins with mass spectrometry (pulldown enrichment); details: HEK293 cells; 1 µM; 24 h
Procedure: Cells were cultured, treated with a compound, and lysed as described above. The cell lysate was diluted to a protein concentration of 2 mg/mL with ABP lysis buffer. 1 µL of each click reagent (see above) were added to each sample, followed by an incubation period of one hour at room temperature with protection from light. The sample volume was adjusted to 1000 µL with PBS and 30 µL of a NeutrAvidin (Thermo Fisher) bead slurry (prewashed 3x with PBS) were added to each sample. The samples were incubated for one hour to overnight on a rotator at 15 rpm at 4 °C. Beads were pelleted by centrifugation, the supernatant was discarded, and the beads were washed six times (1x with ½x lysis buffer, followed by five washes with PBS). After removing the washing solution completely, the beads were subjected to reduction with dithiothreitol (1 mM), alkylation with chloroacetamide (5 mM) and on-bead digestion with first LysC (Serva Biotech, 1 h, 37 °C), followed by trypsin (Sigma Aldrich, 1 h, overnight). Tryptic peptides were desalted with C18 StageTips and analyzed by nano-HPLC-MS/MS.
An Ultimate 3000 RSLC nano-HPLC system and a Hybrid-Orbitrap mass spectrometer (Q Exactive Plus) equipped with a nano-spray source (Thermo Fisher Scientific) was used. The protein fragments were enriched on a C18 PepMap 100 column (5 μm, 100 Å, 300 μm ID * 5 mm, Dionex) using 0.1% TFA, at a flow rate of 30 μL/min, for 5 min and separated on a C18 PepMap 100 column (3 μm, 100 Å, 75 μm ID × 50 cm) using a linear gradient (5–30% ACN/H2O + 0.1% formic acid over 90 min) with a flow rate of 300 nL/min. […] Signals in the mass range of m/z 300 to 1650 were acquired at a resolution of 70,000 for the full scan, followed by ten high-energy collision-dissociation (HCD) MS/MS scans of the most intense at least doubly charged ions at a resolution of 17,500. Proteins were relatively quantified by using MaxQuant[60] v.2.0.3.1, including the Andromeda search algorithm and searching the Homo sapiens reference proteome of the UniProt database. Briefly, an MS/MS ion search was performed for enzymatic trypsin cleavage, allowing two missed cleavages. Carbamidomethylation was set as a fixed protein modification, and oxidation of methionine and acetylation of the N-terminus were set as variable modifications. The mass accuracy was set to 20 parts per million (ppm) for the first search and to 4.5 ppm for the second search. The false discovery rates for peptide and protein identification were set to 0.01. Only proteins for which at least two peptides were quantified were chosen for further validation. Relative quantification of proteins was performed by using the label-free quantification algorithm implemented in MaxQuant. Statistical data analysis of pulldown samples was performed using Perseus[61] v.1.6.15.0, including proteins which were identified in at least four of the five biological replicates which were used per condition. Label-free quantification (LFQ) intensities were log-transformed (log2); replicate samples were grouped together. Pairwise comparisons of groups were performed separately. Missing values were imputed using small normally distributed values (width 0.3, downshift 1.8) and a two-sided t-test (s0 = 5, FDR = 0.001) was performed.

[4] = mean ± SD of independent experiments, read-out: IC50 (UCHL1)
[5] = read-out: UCHL1 activity, data point mean
[6] = source data Fig. 3b, read-out: Averaged IC50s from independent experiments (single experiments)

| SMILES | IC50 (UCHL1 [1]; [4]) [nM] | melting temperature (Tm) of UCHL1 (UCHL1 [2]; compound 1.25 µM) | melting temperature (Tm) of UCHL1 (UCHL1 [2]; compound 2.5 µM) | melting temperature (Tm) of UCHL1 (UCHL1 [2]; compound 5 µM) | remaining activity at 0.000610352 µM (UCHL1 [1]; [5]) [%] | remaining activity at 0.0012207 µM (UCHL1 [1]; [5]) [%] | remaining activity at 0.00244141 µM (UCHL1 [1]; [5]) [%] | remaining activity at 0.00488281 µM (UCHL1 [1]; [5]) [%] | IC50 (UCHL1 [1]; read-out: IC50 (UCHL1)) [nM] | remaining activity at 0.00050402 µM (UCHL1 [1]; [5]) [%] | remaining activity at 0.00151206 µM (UCHL1 [1]; [5]) [%] | remaining activity at 0.00453618 µM (UCHL1 [1]; [5]) [%] | remaining activity at 0.0136085 µM (UCHL1 [1]; [5]) [%] | remaining activity at 0.0408257 µM (UCHL1 [1]; [5]) [%] | remaining activity at 0.122477 µM (UCHL1 [1]; [5]) [%] | remaining activity at 0.367431 µM (UCHL1 [1]; [5]) [%] | remaining activity at 1.10229 µM (UCHL1 [1]; [5]) [%] | remaining activity at 3.30688 µM (UCHL1 [1]; [5]) [%] | remaining activity at 30.581 µM (UCHL1 [1]; [5]) [%] | remaining activity at 100 µM (UCHL1 [1]; [5]) [%] | also measured |
| --- | --- | --- | --- | --- | --- | --- | --- | --- | --- | --- | --- | --- | --- | --- | --- | --- | --- | --- | --- | --- | --- |
| N#CN1CCC[C@H]1C(=O)N1CCc2c(-c3ccnc4[nH]ccc34)cccc21 [Cpd117, reference compound] | 9 ± 3 |  |  |  |  |  |  |  |  |  |  |  |  |  |  |  |  |  |  |  | inhibition of cellular UCHL1 (UCHL1 in HEK293 cells; after 1 h (Supplementary Fig. 5f)): very low degree of inhibition; inhibition of cellular UCHL1 (UCHL1 in HEK293 cells; after 24 h incubation (Supplementary Fig. 5f)): no inhibition of cellular UCHL1 at all |
| COCCNC(=O)c1ccc(-n2cnc(NC(=O)[C@H]3CCN(C#N)C3)c2)cc1 [Cpd158, reference compound] |  | 59.4 | 59.4 | 59.1 and 59.4 | 96.9 | 97.3 | 95.8 | 91.1 |  |  |  |  |  |  |  |  |  |  |  |  | inhibition of cellular UCHL1 (UCHL1 in HEK293 cells; HEK293 cells, 1 and 5 µM, 1 h and 24 h (Supplementary Fig. 5f)): time- and concentration-dependent inhibition; remaining activity at 0.00976562 µM (UCHL1 [1]; [5]): 90.7%; remaining activity at 0.0195312 µM (UCHL1 [1]; [5]): 86.9%; remaining activity at 0.0390625 µM (UCHL1 [1]; [5]): 82%; remaining activity at 0.078125 µM (UCHL1 [1]; [5]): 76.7%; remaining activity at 0.15625 µM (UCHL1 [1]; [5]): 62.5%; remaining activity at 0.3125 µM (UCHL1 [1]; [5]): 34.6%; remaining activity at 0.625 µM (UCHL1 [1]; [5]): 14.3%; remaining activity at 1.25 µM (UCHL1 [1]; [5]): 4.23%; remaining activity at 2.5 µM (UCHL1 [1]; [5]): 2.34%; remaining activity at 5 µM (UCHL1 [1]; [5]): 1.97%; remaining activity at 10 µM (UCHL1 [1]; [5]): 1.42%; IC50 (UCHL1 [1]; [6]): 222 nM and 36 nM and 129 nM and 153 nM and 104 nM |
| C#CCCCNC(=O)c1ccc(-n2cnc(NC(=O)[C@@H]3CCNC3)c2)cc1 [GK12R] |  | 53.4 and 52.8 and 53.1 | 53.4 | 53.1 |  |  |  |  | > 100000 | 95.8 | 97.9 | 98 | 94.4 | 95.3 | 95.6 | 94.6 | 95.5 | 94.2 | 93.5 | 99.1 |  |
| C#CCCCNC(=O)c1ccc(-n2cnc(NC(=O)[C@H]3CCNC3)c2)cc1 [GK12S] |  | 53.4 and 53.1 | 53.4 | 53.4 and 53.1 |  |  |  |  | > 100000 | 91.5 | 91.7 | 90.7 | 97.1 | 88.7 | 91.4 | 92.8 | 91.5 | 88.8 | 90.9 | 101 |  |
| C#CCCCNC(=O)c1ccc(-n2cnc(NC(=O)[C@@H]3CCN(C#N)C3)c2)cc1 [GK13R] | 2090 ± 164 | 53.1 and 53.4 | 53.7 and 53.4 | 54 and 54.6 | 98.3 | 99.2 | 99.4 | 97.8 | 2000 |  |  |  |  |  |  |  |  |  |  |  | change in log2 enrichment values of UCHL1, GK13S vs GK13R (UCHL1 [3]): 2; inhibition of cellular UCHL1 (UCHL1 in HEK293 cells; HEK293 cells, 24 h): complete inhibition of UCHL1; remaining activity at 0.000305176 µM (UCHL1 [1]; compound 0.305176 nM, read-out: UCHL1 activity, data point mean): 103%; remaining activity at 0.00976562 µM (UCHL1 [1]; [5]): 96.8%; remaining activity at 0.0195312 µM (UCHL1 [1]; [5]): 95.9%; remaining activity at 0.0390625 µM (UCHL1 [1]; [5]): 98.3%; remaining activity at 0.078125 µM (UCHL1 [1]; [5]): 93.7%; remaining activity at 0.15625 µM (UCHL1 [1]; [5]): 88%; remaining activity at 0.3125 µM (UCHL1 [1]; [5]): 80.6%; remaining activity at 0.625 µM (UCHL1 [1]; [5]): 70.3%; remaining activity at 1.25 µM (UCHL1 [1]; [5]): 52.9%; remaining activity at 2.5 µM (UCHL1 [1]; [5]): 34.3%; remaining activity at 5 µM (UCHL1 [1]; [5]): 13.6%; remaining activity at 10 µM (UCHL1 [1]; [5]): 3.56%; IC50 (UCHL1 [1]; [6]): 2210 nM and 1980 nM |
| C#CCCCNC(=O)[C@@H]1CCN(C#N)C1 [GK16R] |  | 53.4 and 53.1 | 53.1 and 53.4 | 53.4 and 53.1 |  |  |  |  | > 100000 | 91.8 | 91.4 | 89.6 | 96.6 | 94.5 | 93.7 | 92.4 | 91.5 | 89 | 83.6 | 80.5 |  |
